Tests used:
Format in all cases: cell-based
Ba/F3 ERBB2 YVMA = assay: Cell viability assay (CellTiter Glo), Ba/F3 cells engineered to express ERBB2 YVMA; details: Mus musculus, BaF3, 72 h, Ba/F3 cells expressing human ERBB2 YVMA mutant; 72 hours; cell viability, CellTiter Glo; read-out: Ba/F3 ERBB2 YVMA, IC50
[1] = target: phosphorylated ERBB2 (pERBB2) (Homo sapiens (Human), UniProt P04626); assay: Detection of phosphorylated ERBB2 (pERBB2) by ELISA in BT-474 cells; details: four hours incubation with compound
Sequence of phosphorylated ERBB2 (pERBB2) (P04626 23-1255): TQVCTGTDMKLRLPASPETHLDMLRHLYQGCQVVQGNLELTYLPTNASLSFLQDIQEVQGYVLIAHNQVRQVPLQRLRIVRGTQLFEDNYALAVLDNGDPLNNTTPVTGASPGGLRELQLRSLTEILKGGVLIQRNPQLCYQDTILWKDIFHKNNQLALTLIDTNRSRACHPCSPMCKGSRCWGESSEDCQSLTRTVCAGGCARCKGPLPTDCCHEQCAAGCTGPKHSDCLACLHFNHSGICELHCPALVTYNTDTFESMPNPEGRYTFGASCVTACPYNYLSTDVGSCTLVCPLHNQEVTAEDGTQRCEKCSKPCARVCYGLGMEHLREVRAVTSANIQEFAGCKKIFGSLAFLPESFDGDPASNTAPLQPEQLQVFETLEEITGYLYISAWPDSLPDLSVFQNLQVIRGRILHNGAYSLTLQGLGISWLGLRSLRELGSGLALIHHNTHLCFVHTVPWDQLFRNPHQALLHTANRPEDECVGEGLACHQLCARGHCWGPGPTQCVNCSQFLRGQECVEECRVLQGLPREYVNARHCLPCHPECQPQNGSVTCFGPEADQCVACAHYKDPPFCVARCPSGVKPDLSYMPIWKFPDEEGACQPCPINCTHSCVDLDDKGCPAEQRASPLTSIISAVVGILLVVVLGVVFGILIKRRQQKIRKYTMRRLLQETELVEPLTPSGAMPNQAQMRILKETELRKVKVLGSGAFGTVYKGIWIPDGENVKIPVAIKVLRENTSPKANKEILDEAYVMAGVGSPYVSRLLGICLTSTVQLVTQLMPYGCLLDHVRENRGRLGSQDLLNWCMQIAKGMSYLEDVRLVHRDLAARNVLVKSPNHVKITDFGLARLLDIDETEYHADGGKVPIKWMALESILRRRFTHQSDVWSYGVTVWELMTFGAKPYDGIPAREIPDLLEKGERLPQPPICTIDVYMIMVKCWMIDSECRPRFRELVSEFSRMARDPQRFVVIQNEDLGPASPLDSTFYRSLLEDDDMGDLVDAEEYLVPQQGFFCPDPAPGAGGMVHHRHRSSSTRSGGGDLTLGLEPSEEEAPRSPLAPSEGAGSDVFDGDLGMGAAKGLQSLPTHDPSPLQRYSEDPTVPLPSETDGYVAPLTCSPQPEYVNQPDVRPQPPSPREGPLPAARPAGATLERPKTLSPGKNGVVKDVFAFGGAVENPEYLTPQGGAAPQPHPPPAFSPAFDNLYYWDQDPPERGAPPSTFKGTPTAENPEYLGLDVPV
Method: BT-474 cells were seeded into a 96-well at 2.0*10^4 cells/100 μl/well. Compounds were dissolved and serially diluted in DMSO. The compounds were then were added, mixed, and incubated for four hours at 37° C., 5% CO2. […] Following the four hour incubation with compounds, cell lysates were prepared. Plates were centrifuged for 5 min at 3000 RPM, and supernatant was removed from each well. Cells were washed 3 times by resuspension in 150 μl PBS, followed by centrifugation and removal of the supernatant, as above. 100 μl of cell lysis buffer (Boston BioProducts, cat #BP-115D) supplied with 1× complete ULTRA cocktail inhibitor (Thermo ScientificTM, cat #78443) was then added to the washed cells. Cells were incubated with lysis buffer for 1 hour at 4° C., and then stored at -80° C. Enzyme-linked immunosorbent assays (ELISA) were performed to measure phosphorylated ERBB2 levels. […] The next day, plates were washed with PBS+0.05% Tween20 (PBST). 150 μl of 5% BSA blocking solution was added for 1 hour at room temperature, with shaking. Plates were washed with PB ST. Cell lysates were thawed and 100 μl of lysate was added to the ELISA plate. The plates were incubated for 2 hours at room temperature, with shaking. ELISA plates were then washed with PBST and 100 μl of an HRP-labeled detection antibody that binds phosphorylated tyrosine (R&D Systems, cat #841913) was added to each well. Plates were incubated for 1 hour at room temperature, with shaking. Plates were then washed with PBST, and 100 μl TMB substrate solution (R&D Systems, cat #DY999) was added. Plate were incubated in the dark for 20 minutes at room temperature. 50 μl of Stop solution (R&D Systems, cat #DY994) (50 μl) was added to each well and mixed. […] The remaining kinase activity by calculated using the following formula: % Relative activity=100×([…]). The low and high control values (“LC” and “HC”) were generated from lysate from wells without cells or with cells treated with 0.1% DMSO, respectively.

[2] = target: phosphorylated EGFR (pEGFR) (Homo sapiens (Human), UniProt P00533); assay: Detection of phosphorylated EGFR (pEGFR) in EGF-stimulated A431 cells (AlphaLISA); details: A431 cells (10% FBS), 4 hours incubation, then EGF 30 ng/mL for 10 minutes
Sequence of phosphorylated EGFR (pEGFR) (P00533 25-1210): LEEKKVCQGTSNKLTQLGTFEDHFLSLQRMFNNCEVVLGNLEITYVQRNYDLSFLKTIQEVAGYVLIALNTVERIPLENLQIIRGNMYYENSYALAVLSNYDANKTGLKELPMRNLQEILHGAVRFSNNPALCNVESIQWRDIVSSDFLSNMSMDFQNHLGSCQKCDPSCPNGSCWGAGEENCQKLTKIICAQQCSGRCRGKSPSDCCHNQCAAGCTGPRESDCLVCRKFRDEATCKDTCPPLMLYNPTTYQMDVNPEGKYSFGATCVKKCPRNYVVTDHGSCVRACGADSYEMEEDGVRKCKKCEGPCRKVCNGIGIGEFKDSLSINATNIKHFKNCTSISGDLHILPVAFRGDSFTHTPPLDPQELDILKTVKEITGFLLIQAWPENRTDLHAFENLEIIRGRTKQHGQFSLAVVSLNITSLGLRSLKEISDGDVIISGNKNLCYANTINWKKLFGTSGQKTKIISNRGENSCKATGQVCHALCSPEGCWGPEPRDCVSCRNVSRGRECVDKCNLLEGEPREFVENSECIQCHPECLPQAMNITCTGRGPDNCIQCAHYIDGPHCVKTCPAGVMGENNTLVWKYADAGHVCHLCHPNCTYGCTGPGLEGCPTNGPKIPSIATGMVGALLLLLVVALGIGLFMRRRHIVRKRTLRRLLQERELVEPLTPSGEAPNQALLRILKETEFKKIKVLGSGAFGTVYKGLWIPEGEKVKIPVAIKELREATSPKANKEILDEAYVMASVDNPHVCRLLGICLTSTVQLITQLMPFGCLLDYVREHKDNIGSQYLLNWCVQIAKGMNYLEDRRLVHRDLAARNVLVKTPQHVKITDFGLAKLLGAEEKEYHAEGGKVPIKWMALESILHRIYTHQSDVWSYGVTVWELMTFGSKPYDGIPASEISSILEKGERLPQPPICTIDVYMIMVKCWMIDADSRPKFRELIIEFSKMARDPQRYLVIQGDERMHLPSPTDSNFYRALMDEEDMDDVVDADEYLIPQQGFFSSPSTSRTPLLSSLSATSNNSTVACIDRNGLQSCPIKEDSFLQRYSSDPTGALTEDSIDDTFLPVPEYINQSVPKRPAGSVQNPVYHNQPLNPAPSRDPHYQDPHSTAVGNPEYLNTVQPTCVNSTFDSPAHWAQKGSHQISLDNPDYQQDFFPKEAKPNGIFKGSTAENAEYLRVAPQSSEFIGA
Method: […] were performed to measure phosphorylated EGFR levels using A431 cells (10% FBS). A431 (1.0*10^4 cells/40 μl/well) cells were seeded in 384 well. Compounds were dissolved in DMSO, serially diluted in DMSO and then were added, mixed, and incubated for 4 hours at 37° C., 5% CO2. Following the 4-hours incubation, cells were stimulated for 10 minutes with EGF (Invitrogen, cat #PHG0311) at a final concentration of 30 ng/mL in the incubator. The media was aspirated and cells were lysed in […] lysis buffer with protease and phosphatase inhibitors (PerkinElmer, cat #ALSU-PEGFR-A50K). The plates were placed on a shaker for 5 minutes and then incubated for 30 min at 4° C. for complete lysis. The lysate was transferred to an Optiplate (Perkin Elmer, cat #6007290).
Acceptor mix (PerkinElmer, cat #ALSU-PEGFR-A50K) was prepared just before use and 5 μL was dispensed to all the wells, followed by a 1.5-2 h incubation at room temperature in dark. The donor mix (PerkinElmer, cat #ALSU-PEGFR-A50K) was prepared under low light conditions prior to use and […] of donor mix was added to all the wells under subdued lighting or green filters. The plates were placed on a shaker for 5 min, sealed, and incubated overnight at room temperature in dark. Plates were read on the Envision (PerkinElmer) using standard AlphaLISA settings.
The percentage of inhibition on EGFR phosphorylation was calculated following equation: % Inhibition=100×(LumHC−LumSample)/(LumHC−LumLC). The low and high controls (LC/HC) are generated from lysate from wells with cells treated with DMSO or […] Staurosporine (BioAustralis, cat #BIA-S1086), […]. IC50 values were calculated by fitting the Curve using XLfit (v5.3.1.3), equation 201: Y=Bottom+(Top−Bottom)/(1+10^((Log IC50−X)*HillSlope)).

[2H]C([2H])([2H])N(C([2H])([2H])[2H])C([2H])([2H])/C=C/C(=O)N1CCN2C[C@H]1COc1cc3ncnc(Nc4cc(C)c(Oc5ccn6ncnc6c5)cc4F)c3nc12 [Compound 59, (E)-1-((10S)-4-((4-([1,2,4]triazolo[1,5-a]pyridin-7-yloxy)-2-fluoro-5-methylphenyl)amino)-7,8,10,11-tetrahydro-9H-6,10-methanopyrimido[4′,5′:5,6]pyrido[3,2-b][1,4,7]oxadiazonin-9-yl)-4-(bis(methyl-d3)amino)but-2-en-1-one-4,4-d2]
IC50 (Ba/F3 ERBB2 YVMA): 6.5 nM
IC50 [1]: 9 nM
IC50 [2]: 1380 nM
